Non-standard residues stand in square brackets, D forms with d. Residues, ends and D or L forms follow the SMILES beside them. *: point of attachment. X1 = Cn1c(Br)c(Br)c(Br)c1C(=O)*; NMeL = CN[C@@H](CC(C)C)C(=O)O
Experiments:
topoisomerase I = test: Topoisomerase I inhibition; assay type: biochemical
A-549 = test: Cytotoxic activity against lung tumor cell line A-549; assay type: cell-based; conditions: A-549 (lung), human tumor cell line
HT-29 = test: Cytotoxic activity against colon tumor cell line HT-29; assay type: cell-based; conditions: HT-29 (colon), human tumor cell line
[1] = tested on: interaction between the programmed cell death protein PD-1 and its natural ligand PDL1; test: Cell-based assay of PD-1/PDL1 interaction; conditions: for %Inhibition at 1 × 10^−5 M (PD-1): final readout dependent on the interaction between PD-1 and PDL1; for impairment of PD-1/PDL1 interaction: final readout dependent on the interaction between the two proteins
MDA-MB-231 = test: Cytotoxic activity against breast tumor cell line MDA-MB-231; assay type: cell-based; conditions: MDA-MB-231 (breast), human tumor cell line
four cancer cell lines [2] = test: Cytotoxic activity, four cancer cell lines (summary); assay type: cell-based, human; conditions: four cancer cell lines: A-549, HT-29, MDA-MB-231, PSN-1
PSN-1 = test: Cytotoxic activity against pancreas tumor cell line PSN-1; assay type: cell-based; conditions: PSN-1 (pancreas), human tumor cell line
four cancer cell lines [3] = conditions: cited for comparison with 1 and 2; cited from earlier work
Method: In summary, two new peptides bearing unprecedented halogenated moieties, haloirciniamide A (1) and seribunamide A (2), were isolated from a marine sponge belonging to the Irnicia genus, which was selected for further studies. The sample was collected around the Thousand Islands (Indonesia) by the Pharmamar expedition team in collaboration with the Research Center for Oceanography, Indonesian Institute of Sciences (RCO-LIPI). The planar structures of the novel compounds were determined by a combination of extensive NMR and HPLC-MS experiments. The absolute configuration was achieved by Marfey’s ...

Compound | %Inhibition at 1 × 10^−5 M (Top-I) (topoisomerase I; 1 × 10^−5 M) | inhibition of topoisomerase I (topoisomerase I; 1.0 × 10^−5 M) | GI50 (A-549) | GI50 (HT-29) | %Inhibition at 1 × 10^−5 M (PD-1) [1] | impairment of PD-1/PDL1 interaction [1] | GI50 (MDA-MB-231) | cytotoxic activity (four cancer cell lines [2]) | GI50 (PSN-1) | cytotoxic activity (words, comparison compound gunungamide A) (four cancer cell lines [3]) | cytotoxic activity (words, comparison compound cyclocinamide B) (four cancer cell lines [3])
CN1C(=O)C[C@H](C(N)=O)NC(=O)[C@@H](O)CNC(=O)[C@H](CNC(=O)c2cc(Br)c(Br)[nH]2)NC(=O)[C@H](CN)NC(=O)C1Cc1cnc(Cl)[nH]1 (stereo partly drawn) [Compound 1, haloirciniamide A] | 3% | no inhibition of the enzyme | > 12 µM | > 12 µM | 0.3% | unable to impair the interaction | > 12 µM | not observed | > 12 µM |  | 
CC[C@H](C)[C@H](NC(=O)c1c(Br)c(Br)c(Br)n1C)C(=O)N(C)[C@@H](CC(C)C)C(=O)N1CCC[C@H]1C(=O)N[C@@H](CCC(N)=O)C(=O)O [Compound 2, seribunamide A] (X1-I[NMeL]PQ-OH) |  |  | > 12 µM | > 12 µM | −3.5% | unable to impair the interaction | > 12 µM | not observed | > 12 µM |  | 
gunungamide A |  |  |  |  |  |  |  |  |  | not observed | 
cyclocinamide B |  |  |  |  |  |  |  |  |  |  | not observed

Source: paper PMC7460063, “Unique Polyhalogenated Peptides from the Marine Sponge Ircinia sp” (Marine Drugs, 2020)
